Here are results for twelve compounds from ChEMBL document CHEMBL3137667, “[Drug-induced liver injury; fourteenth updated edition of the bibliographic database of liver injuries and related drugs]” (Gastroenterol Clin Biol, 2004).

The conditions of series [1]: human, serum.
For series [2] the following is noted: human.
The conditions of series [3]: human. This is another data set of the same source.
The conditions of series [4]: human. This is another data set of the same source.
For series [5] the following is noted: human. The source holds these as a separate data set.
For series [6] the following is noted: human. The source holds these as a separate data set.
For series [7] the following is noted: human. This is another data set of the same source.
Series [8] in a line: Highest frequency of acute liver toxicity observed during clinical trials, expressed as a percentage. [column '% AIGUE' in source]. As to conditions: human.
The conditions of series [9]: human, serum, 4383 h.
For series [10] the following is noted: human. This is another data set of the same source.
The conditions of series [11]: human, serum. This is another data set of the same source.
The conditions of series [12]: human. The source holds these as a separate data set.
Series [13] in a line: Highest frequency of moderate liver toxicity observed during clinical trials, expressed as a percentage. [column '% BIOL' in source]. As to conditions: human.
For series [14] the following is noted: human. This is another data set of the same source.
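For Hepatotoxicity (association with vascular disease) in this document: count of indexed literature references reporting vascular liver injury in humans, e.g. peliosis hepatitis, hepatic veno-occlusive disease or Budd-Chiari syndrome.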
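For Hepatotoxicity (benign tumour) in this document: value is a count of indexed literature references citing a benign tumour confirmed by histopathology.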
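For Hepatotoxicity (choleostasis) in this document: human cholestatic liver injury, shown by histopathology or by peak ALT or AST elevation over alkaline phosphatase ratio below 2, value counts indexed literature reports.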
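For Hepatotoxicity (chronic liver disease) in this document: chronic liver injury confirmed by histopathology or persistently raised serum aminotransferase activity beyond 6 months, value given as the count of indexed literature references.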
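For Hepatotoxicity (cirrhosis) in this document: value is a count of indexed literature references reporting cirrhosis confirmed by histopathology.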
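For Hepatotoxicity (cytolytic) in this document: human cytolytic liver injury, shown by histopathology or by a ratio above 5 of peak ALT or AST elevation to alkaline phosphatase elevation, value counts indexed references.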
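For Hepatotoxicity (granulomatous hepatitis) in this document: value is a count of indexed literature references reporting granulomatous liver disease confirmed by histopathology.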
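For Hepatotoxicity (malignant tumour) in this document: malignant tumour confirmed by histopathology, value gives the count of indexed literature references reporting it.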
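For Hepatotoxicity (severe hepatitis) in this document: human clinical data: severe hepatitis, meaning potentially life-threatening liver failure or clinically observed cases, the value counts how many indexed literature references report it.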
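For Hepatotoxicity (steatosis) in this document: steatosis confirmed by histopathology, value is the count of indexed references.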

In the case of `CC(C)C[C@H](NC(=O)[C@@H](COC(C)(C)C)NC(=O)[C@H](Cc1ccc(O)cc1)NC(=O)[C@H](CO)NC(=O)[C@H](Cc1c[nH]c2ccccc12)NC(=O)[C@H](Cc1cnc[nH]1)NC(=O)[C@@H]1CCC(=O)N1)C(=O)N[C@@H](CCCNC(=N)N)C(=O)N1CCC[C@H]1C(=O)NNC(N)=O` [GOSERELIN], the “Hepatotoxicity (moderate)” value was determined as 5 in [1] and 7.8% in series [13]. The “Hepatotoxicity (granulomatous hepatitis)” value in series [2] is on record as 0. Besides, in series [3], the “Hepatotoxicity (benign tumour)” value amounted to 0. Further, the “Hepatotoxicity (choleostasis)” value in [4] is recorded as 0. In series [5], the “Hepatotoxicity (cirrhosis)” value is reported as 0. Further, in series [6], the “Hepatotoxicity (cytolytic)” value was 0. Further, in series [7], the “Hepatotoxicity (association with vascular disease)” value is 0. Also, the “Hepatotoxicity (acute)” value stood at 0% in [8] and 0 in series [11]. In series [9], the “Hepatotoxicity (chronic liver disease)” value came out at 0. Also, the “Hepatotoxicity (steatosis)” value in [10] came out at 0. Also, in [12], the “Hepatotoxicity (severe hepatitis)” value is given as 1. Moreover, the “Hepatotoxicity (malignant tumour)” value in [14] worked out at 0.
With `CCNC(=O)[C@@H]1CCCN1C(=O)[C@H](CCCNC(=N)N)NC(=O)[C@H](CC(C)C)NC(=O)[C@@H](CC(C)C)NC(=O)[C@H](Cc1ccc(O)cc1)NC(=O)[C@H](CO)NC(=O)[C@H](Cc1c[nH]c2ccccc12)NC(=O)[C@H](Cc1c[nH]cn1)NC(=O)[C@@H]1CCC(=O)N1` [LEUPROLIDE], the “Hepatotoxicity (moderate)” value in [1] is recorded as 3; in [13], 2.4%. Also, in [2], the “Hepatotoxicity (granulomatous hepatitis)” value was 0. For the same compound, the “Hepatotoxicity (benign tumour)” value in [3] was found to be 0. In series [4], the “Hepatotoxicity (choleostasis)” value amounted to 0. Besides, the “Hepatotoxicity (cirrhosis)” value in series [5] was 0. In addition, the “Hepatotoxicity (cytolytic)” value in [6] amounted to 0. Moreover, the “Hepatotoxicity (association with vascular disease)” value in series [7] amounted to 0. Besides, the results for the “Hepatotoxicity (acute)” value in [8] and in series [11] were 0% and 0, respectively. The “Hepatotoxicity (chronic liver disease)” value in series [9] was 0. Besides, the “Hepatotoxicity (steatosis)” value in series [10] stood at 0. The “Hepatotoxicity (severe hepatitis)” value in series [12] was 0. The “Hepatotoxicity (malignant tumour)” value in series [14] was 0.
On to `O=C(COCCOCCOCC(=O)Nc1c(I)cc(I)c(C(=O)O)c1I)Nc1c(I)cc(I)c(C(=O)O)c1I` [IOTROXIC ACID], for which the entries for the “Hepatotoxicity (moderate)” value in [1] and in series [13] were 1 and 0%, respectively. The “Hepatotoxicity (granulomatous hepatitis)” value in series [2] is recorded as 0. Also, the “Hepatotoxicity (benign tumour)” value in [3] was determined as 0. The “Hepatotoxicity (choleostasis)” value in series [4] stood at 0. For the same compound, the “Hepatotoxicity (cirrhosis)” value in series [5] is reported as 0. The “Hepatotoxicity (cytolytic)” value in [6] amounted to 0. The “Hepatotoxicity (association with vascular disease)” value in series [7] stood at 0. Besides, the “Hepatotoxicity (acute)” value in series [8] was found to be 0%; in [11] it was 0. In series [9], the “Hepatotoxicity (chronic liver disease)” value worked out at 0. Further, in series [10], the “Hepatotoxicity (steatosis)” value stood at 0. Moreover, the “Hepatotoxicity (severe hepatitis)” value in series [12] was found to be 0. In series [14], the “Hepatotoxicity (malignant tumour)” value was 0.
Consider `Nc1nc(/C(=C/CC(=O)O)C(=O)N[C@@H]2C(=O)N3C(C(=O)O)=CCS[C@H]23)cs1` [CEFTIBUTEN], for which the “Hepatotoxicity (moderate)” value in series [1] is given as 15; in series [13] it was 14.3%. Further, the “Hepatotoxicity (granulomatous hepatitis)” value in series [2] was found to be 0. Also, in series [3], the “Hepatotoxicity (benign tumour)” value was 0. The “Hepatotoxicity (choleostasis)” value in series [4] is 0. Moreover, the “Hepatotoxicity (cirrhosis)” value in [5] stood at 0. The “Hepatotoxicity (cytolytic)” value in series [6] came to 0. For the same compound, the “Hepatotoxicity (association with vascular disease)” value in series [7] is 0. For the same compound, the “Hepatotoxicity (acute)” value was 0% in series [8] and 0 in [11]. Moreover, the “Hepatotoxicity (chronic liver disease)” value in series [9] stood at 0. Besides, in series [10], the “Hepatotoxicity (steatosis)” value amounted to 0. Moreover, the “Hepatotoxicity (severe hepatitis)” value in series [12] amounted to 0. For the same compound, the “Hepatotoxicity (malignant tumour)” value in series [14] was 0.
On to `CC(=O)NCCOC(=O)C(Oc1cccc(C(F)(F)F)c1)c1ccc(Cl)cc1` (stereo not drawn) [HALOFENATE], for which the “Hepatotoxicity (moderate)” value worked out at 1 in [1] and 0% in [13]. The “Hepatotoxicity (granulomatous hepatitis)” value in series [2] came to 0. The “Hepatotoxicity (benign tumour)” value in series [3] is on record as 0. Also, the “Hepatotoxicity (choleostasis)” value in series [4] came to 0. The “Hepatotoxicity (cirrhosis)” value in [5] was 0. In addition, the “Hepatotoxicity (cytolytic)” value in [6] amounted to 0. Moreover, the “Hepatotoxicity (association with vascular disease)” value in series [7] stood at 0. For the same compound, the entries for the “Hepatotoxicity (acute)” value in [8] and in series [11] were 0% and 0, respectively. The “Hepatotoxicity (chronic liver disease)” value in series [9] is listed as 0. In series [10], the “Hepatotoxicity (steatosis)” value is on record as 0. In addition, the “Hepatotoxicity (severe hepatitis)” value in [12] is recorded as 0. Besides, the “Hepatotoxicity (malignant tumour)” value in [14] was 0.
Regarding `CNc1nc(N(C)C)nc(N(C)C)n1` [PENTAMETHYL MELAMINE], the “Hepatotoxicity (moderate)” value in [1] came out at 1; in series [13] it was 31%. The “Hepatotoxicity (granulomatous hepatitis)” value in series [2] is recorded as 0. The “Hepatotoxicity (benign tumour)” value in series [3] is listed as 0. Besides, the “Hepatotoxicity (choleostasis)” value in [4] was determined as 0. In addition, in series [5], the “Hepatotoxicity (cirrhosis)” value turned out to be 0. The “Hepatotoxicity (cytolytic)” value in series [6] is 0. Besides, the “Hepatotoxicity (association with vascular disease)” value in series [7] is given as 0. Also, the “Hepatotoxicity (acute)” value in [8] turned out to be 0%; in series [11], 0. Further, the “Hepatotoxicity (chronic liver disease)” value in [9] turned out to be 0. In addition, the “Hepatotoxicity (steatosis)” value in series [10] came out at 0. In addition, the “Hepatotoxicity (severe hepatitis)” value in series [12] was 0. The “Hepatotoxicity (malignant tumour)” value in series [14] was determined as 0.
For `[Se]`, the results for the “Hepatotoxicity (moderate)” value in series [1] and in series [13] were 0 and 0%, respectively. Further, the “Hepatotoxicity (granulomatous hepatitis)” value in series [2] is recorded as 0. Moreover, the “Hepatotoxicity (benign tumour)” value in series [3] is given as 0. The “Hepatotoxicity (choleostasis)” value in series [4] stood at 0. The “Hepatotoxicity (cirrhosis)” value in series [5] came out at 0. For the same compound, in series [6], the “Hepatotoxicity (cytolytic)” value was 0. Also, the “Hepatotoxicity (association with vascular disease)” value in [7] was determined as 0. Further, the “Hepatotoxicity (acute)” value worked out at 0% in series [8] and 0 in series [11]. The “Hepatotoxicity (chronic liver disease)” value in series [9] stood at 0. In addition, the “Hepatotoxicity (steatosis)” value in series [10] is recorded as 1. The “Hepatotoxicity (severe hepatitis)” value in [12] is 0. Also, in series [14], the “Hepatotoxicity (malignant tumour)” value stood at 0.
Regarding `Clc1cccc(Cl)c1N=C1NCCN1` [CLONIDINE], the results for the “Hepatotoxicity (moderate)” value in [1] and in series [13] (Liver) were 1 and 12.5%, respectively. In series [2] (Liver), the “Hepatotoxicity (granulomatous hepatitis)” value is on record as 0. Besides, the “Hepatotoxicity (benign tumour)” value in [3] was determined as 0. Further, in series [4] (Liver), the “Hepatotoxicity (choleostasis)” value amounted to 0. Besides, in [5], the “Hepatotoxicity (cirrhosis)” value is recorded as 0. For the same compound, the “Hepatotoxicity (cytolytic)” value in series [6] (Liver) is recorded as 0. The “Hepatotoxicity (association with vascular disease)” value in [7] worked out at 0. The “Hepatotoxicity (acute)” value in series [8] (Liver) worked out at 0%; in [11] it was 0. In series [9], the “Hepatotoxicity (chronic liver disease)” value stood at 0. In addition, the “Hepatotoxicity (steatosis)” value in series [10] is 0. The “Hepatotoxicity (severe hepatitis)” value in [12] (Liver) is 0. In [14], the “Hepatotoxicity (malignant tumour)” value came to 0.
In the case of `COc1cc(NCc2ccc3nc(N)nc(N)c3c2C)cc(OC)c1OC` [TRIMETREXATE], the “Hepatotoxicity (moderate)” value in series [1] is reported as 10; in series [13], 25%. Also, in series [2], the “Hepatotoxicity (granulomatous hepatitis)” value is given as 0. In addition, in [3], the “Hepatotoxicity (benign tumour)” value is 0. In addition, in [4], the “Hepatotoxicity (choleostasis)” value is 0. For the same compound, in series [5], the “Hepatotoxicity (cirrhosis)” value stood at 0. Also, the “Hepatotoxicity (cytolytic)” value in [6] was 0. Moreover, the “Hepatotoxicity (association with vascular disease)” value in series [7] stood at 0. Further, the figures for the “Hepatotoxicity (acute)” value in series [8] and in [11] were 8% and 1, respectively. In series [9], the “Hepatotoxicity (chronic liver disease)” value was found to be 0. Moreover, the “Hepatotoxicity (steatosis)” value in [10] was 0. Also, the “Hepatotoxicity (severe hepatitis)” value in [12] is recorded as 0. The “Hepatotoxicity (malignant tumour)” value in series [14] is recorded as 0.
On to `CN1CCc2cccc3c2[C@H]1Cc1ccc(O)c(O)c1-3` [APOMORPHINE], for which the results for the “Hepatotoxicity (moderate)” value in [1] and in series [13] were 1 and 0%, respectively. In series [2], the “Hepatotoxicity (granulomatous hepatitis)” value worked out at 0. Further, in series [3], the “Hepatotoxicity (benign tumour)” value was 0. For the same compound, the “Hepatotoxicity (choleostasis)” value in series [4] amounted to 0. For the same compound, in series [5], the “Hepatotoxicity (cirrhosis)” value was 0. Further, the “Hepatotoxicity (cytolytic)” value in series [6] worked out at 0. Also, the “Hepatotoxicity (association with vascular disease)” value in series [7] worked out at 0. The “Hepatotoxicity (acute)” value was determined as 0% in series [8] and 0 in series [11]. The “Hepatotoxicity (chronic liver disease)” value in series [9] stood at 0. Besides, the “Hepatotoxicity (steatosis)” value in series [10] was 0. In addition, the “Hepatotoxicity (severe hepatitis)” value in series [12] is on record as 0. The “Hepatotoxicity (malignant tumour)” value in [14] came out at 0.
With `Cc1cc(C)cc(OCC2CNC(=O)O2)c1` (stereo not drawn) [METAXALONE], the “Hepatotoxicity (moderate)” value in series [1] was found to be 0; in series [13], 0%. In series [2], the “Hepatotoxicity (granulomatous hepatitis)” value was found to be 0. Besides, the “Hepatotoxicity (benign tumour)” value in series [3] was 0. For the same compound, the “Hepatotoxicity (choleostasis)” value in [4] came out at 0. Further, in [5], the “Hepatotoxicity (cirrhosis)” value came out at 0. For the same compound, the “Hepatotoxicity (cytolytic)” value in series [6] is recorded as 0. Also, in series [7], the “Hepatotoxicity (association with vascular disease)” value was 0. Besides, the “Hepatotoxicity (acute)” value amounted to 0% in series [8] and 2 in [11]. The “Hepatotoxicity (chronic liver disease)” value in series [9] turned out to be 0. The “Hepatotoxicity (steatosis)” value in series [10] is recorded as 0. In addition, the “Hepatotoxicity (severe hepatitis)” value in series [12] came to 0. For the same compound, the “Hepatotoxicity (malignant tumour)” value in series [14] is reported as 0.
For INTERLEUKIN 1BETA, the “Hepatotoxicity (moderate)” value is 1 in series [1] and 75% in series [13]. Further, the “Hepatotoxicity (granulomatous hepatitis)” value in series [2] is 0. For the same compound, the “Hepatotoxicity (benign tumour)” value in series [3] is 0. Further, the “Hepatotoxicity (choleostasis)” value in [4] is given as 0. The “Hepatotoxicity (cirrhosis)” value in [5] came to 0. Also, in series [6], the “Hepatotoxicity (cytolytic)” value is 0. In addition, in [7], the “Hepatotoxicity (association with vascular disease)” value came to 0. Besides, the “Hepatotoxicity (acute)” value in series [8] is reported as 0%; in series [11], 0. For the same compound, the “Hepatotoxicity (chronic liver disease)” value in series [9] worked out at 0. For the same compound, the “Hepatotoxicity (steatosis)” value in [10] turned out to be 0. The “Hepatotoxicity (severe hepatitis)” value in series [12] was 0. Moreover, the “Hepatotoxicity (malignant tumour)” value in [14] was 0.
